Columns and labels:
[1] = UV-vis absorption spectrum; format: physicochemical; details: Table 2
Procedure: All the melting points were measured with a Yanagimoto-Micro apparatus and were not corrected. Nuclear magnetic resonance (^1H-NMR) spectrum of a protein was recorded by using a spectrometer, JEOL-FX-200 or JEOL-GSX-400. Chemical shifts were indicated as δ values (ppm) using tetramethylsilane as the internal standard. The fast atom bombardment mass spectrometric analysis (FAB) or the electron ionization mass spectrometric analysis (El) was performed by using a JEOL-SX-102A apparatus. […] The UV-vis spectrum was measured by using a Beckmann's 650-40 spectrometer. The fluorescence spectrum was recorded with a Hitachi's 650-40 luminescence spectrometer. […]
A DMF solution (250 μl ) of compound (6) of the present invention obtained in Example 1 (3.7 μmol/ml) was added to a 0.1 M phosphate buffer solution (pH 7.5, 1 ml) of BSA (2 mg). […] Then, the aqueous layer containing the labeled protein and the ethyl acetate layer were subjected to UV-vis and fluorescence analyses.
As a result, the ratios of the fluorescent substance in the aqueous layer and the ethyl acetate layer were 44% in BSA and 69% in IgG. The protein concentration in the labeled protein was measured by using a protein assay kit (Bio-Rad, CA), and the total ICG concentration in the labeled protein was determined from the absorbance (789 nm) of the DMF solution and the ε value of the ICD derivative. […]

[2] = Fluorescence spectrum (excitation/emission); format: physicochemical
Procedure: All the melting points were measured with a Yanagimoto-Micro apparatus and were not corrected. Nuclear magnetic resonance (^1H-NMR) spectrum of a protein was recorded by using a spectrometer, JEOL-FX-200 or JEOL-GSX-400. Chemical shifts were indicated as δ values (ppm) using tetramethylsilane as the internal standard. The fast atom bombardment mass spectrometric analysis (FAB) or the electron ionization mass spectrometric analysis (El) was performed by using a JEOL-SX-102A apparatus. […] The UV-vis spectrum was measured by using a Beckmann's 650-40 spectrometer. The fluorescence spectrum was recorded with a Hitachi's 650-40 luminescence spectrometer. The column chromatography was performed by using Merck's Silica Gel 60 (70-230 mesh). The compound numbers in Examples correspond to those in the aforementioned scheme.
A DMF solution (250 μl ) of compound (6) of the present invention obtained in Example 1 (3.7 μmol/ml) was added to a 0.1 M phosphate buffer solution (pH 7.5, 1 ml) of BSA (2 mg). The reaction mixture was allowed to stand for 30 minutes and subjected to Sephadex LH-20 column chromatography (1.5 cm×50 cm), and then eluted with a 0.1 M phosphate buffer solution (pH 7.5) to obtain a fraction of ICG-labeled protein. For IgG (2 mg), the labeling reaction with a DMF solution (250 μl) of ICG-ATT (6) (3.7 μmol/ml) was carried out in a similar manner to the above by using 0.1 M carbonate buffer (pH 9.5) instead of 0.1 M phosphate buffer (pH 7.5). The 0.1 M phosphate or the carbonate buffer solution (1 ml), containing the ICG-labeled protein (BSA or IgG) obtained by the Sephadex LH-20 column chromatography, was added to ethyl acetate (1 ml), and the mixture was vigorously stirred for 30 minutes to remove fluorescent compounds which bound to the protein through noncovalent bond. Then, the aqueous layer containing the labeled protein and the ethyl acetate layer were subjected to UV-vis and fluorescence analyses.
As a result, the ratios of the fluorescent substance in the aqueous layer and the ethyl acetate layer were 44% in BSA and 69% in IgG. The protein concentration in the labeled protein was measured by using a protein assay kit (Bio-Rad, CA), and the total ICG concentration in the labeled protein was determined from the absorbance (789 nm) of the DMF solution and the ε value of the ICD derivative. The ratios of ICG versus protein (ICG/protein) in each ICG-labeled protein were 21.5 (BSA) and 23.6 (IgG). […] From the foregoing results, it is readily understood that the compounds of the present invention are useful as near infrared fluorescent labeling agents for proteins and oligopeptides.

UV-vis abs (λmax) [1]: 789 nm
λ em ([2]; DMF): 830 nm
λ ex ([2]; DMF): 765 nm
fluorescent λem ([2]; Table 2): 830 nm
fluorescent λex ([2]; Table 2): 765 nm
Compound: CCN1C(=CC=CC=CC=CC2=[N+](CCCCCC(=O)N3CCSC3=S)c3ccc4ccccc4c3C2(C)C)C(C)(C)c2c1ccc1ccccc21.[Cl-] [ICG-ATT (6), 2-[7-(1,3-Dihydro-1,1-dimethyl-3-ethylbenz[e]indolin-2-ylidene)-1,3,5-heptatrienyl]-1,1-dimethyl-3-[[6-[(1,3-thiazolidine-2-thion)-1-yl]-6-oxo]hexyl]-1H-benz[e]indolium Chloride]
